# Patent publication US12239134B2, “Plant antimicrobial compositions including an emulsifier and/or ozone and methods of use” (Arizona Board of Regents on Behalf of The University of …, priority 2018, dated 2025)
# Like-named read-outs stand apart in the source and are kept apart here.
# What was measured:
# Salmonella Newport = assay: Biofilm formation on food contact surface coupons, direct plating; format: cell-based, Salmonella enterica; settings: two-minute treatment
# Procedure: A protocol based on direct plating was also evaluated for testing the biofilm formation by Salmonella or L. monocytogenes. Biofilms were formed on three different food contact surface coupons (HDPE, Buna-N rubber, and 316 stainless steel) for up to 3 days in 35 mm mini-petri dishes. Biofilms were formed using a 1:10 diluted TSB solution (10 mL) with either S. enterica or L. monocytogenes inoculum (100 μL). The diluted TSB was changed every 16-18 hours with new 1:10 diluted TSB (10 mL). Coupons were removed for sampling and enumeration of strongly attached bacteria at three different time points (Day 0, 1, and 3). The coupons were rinsed with deionized water five times to remove planktonic cells. Then the coupons were immersed in 10 mL of BPW. The coupons were sonicated for 2 minutes using different settings (Tables 11 and 12) for each organism. After sonication, the solution was serially diluted and plated on Tryptic Soy Agar (TSA). Plates were incubated at 37° C. for 24-48 hours. The colonies were counted and the colony forming units were determined for the various sonication settings, so that the appropriate setting with the most recovery could be determined. […] These settings were used in further experiments to recover the bacterial cells from coupons during sampling and enumeration (by spread plating) of the bacteria in biofilms.
# The reduction in bacterial biofilm formation was also tested using a direct plating method. Biofilms were formed on six different food contact surface coupons (HDPE, Buna-N rubber, PC, PVC, and stainless steel 304 and 316) in separate 35 mm mini-petri dishes and evaluated at three different time points (Day 0, 1, and 3). Biofilms were formed using a 1:10 diluted TSB solution (10 mL) with either S. enterica or L. monocytogenes inoculum (100 μL). The coupons were also washed and treated with antimicrobial solutions containing the plant-based emulsifier and the essential oil/plant extracts at various concentrations. The diluted TSB was changed every 16-18 hours with new 1:10 diluted TSB (10 mL). The coupons were rinsed in the antimicrobial solution before adding them to the petri dishes containing the fresh, diluted TSB. After their specific time points, coupons were removed aseptically using sterile forceps from the petri dish. The coupons were rinsed by submerging in 25 mL of sterile deionized H2O and swirled five times to remove planktonic cells. After rinsing, they were placed into a new petri dish immersed in 10 mL of BPW. The coupons were sonicated for 2 minutes on ice using different settings for each organism. After sonication, the sonicated solution was serially diluted using 0.1% peptone water and spread plated on TSA in duplicate. Plates were incubated overnight at 37° C. for 24-48 hours, after which, the colonies were counted, to establish the efficacy of the antimicrobial solutions (Tables 17-25).
# S. Newport = settings: used alone, previous work, cited from earlier work
compound,measurement,setting,value
"Cc1ccc(C(C)C)cc1O [Carvacrol, carvacrol]",Survivors of Salmonella Newport on food contact surface,"Salmonella Newport; 0.5% with 0.0001% saponin microemulsion, Day 0, 304 SS",4.75 Log CFU/mL
same,Survivors of Salmonella Newport on food contact surface,"Salmonella Newport; 0.5% with 0.0001% saponin microemulsion, Day 0, 316 SS",4.66 Log CFU/mL
same,Survivors of Salmonella Newport on food contact surface,"Salmonella Newport; 0.5% with 0.0001% saponin microemulsion, Day 0, Buna N",4.19 Log CFU/mL
same,Survivors of Salmonella Newport on food contact surface,"Salmonella Newport; 0.5% with 0.0001% saponin microemulsion, Day 0, HDPE",<1 Log CFU/mL
same,Survivors of Salmonella Newport on food contact surface,"Salmonella Newport; 0.5% with 0.0001% saponin microemulsion, Day 0, PC",<1 Log CFU/mL
same,Survivors of Salmonella Newport on food contact surface,"Salmonella Newport; 0.5% with 0.0001% saponin microemulsion, Day 0, PVC",2.74 Log CFU/mL
same,Survivors of Salmonella Newport on food contact surface,"Salmonella Newport; 0.5% with 0.0001% saponin microemulsion, Day 1, 304 SS",4.26 Log CFU/mL
same,Survivors of Salmonella Newport on food contact surface,"Salmonella Newport; 0.5% with 0.0001% saponin microemulsion, Day 1, 316 SS",4.42 Log CFU/mL
same,Survivors of Salmonella Newport on food contact surface,"Salmonella Newport; 0.5% with 0.0001% saponin microemulsion, Day 1, Buna N",4.65 Log CFU/mL
same,Survivors of Salmonella Newport on food contact surface,"Salmonella Newport; 0.5% with 0.0001% saponin microemulsion, Day 1, HDPE",<1 Log CFU/mL
same,Survivors of Salmonella Newport on food contact surface,"Salmonella Newport; 0.5% with 0.0001% saponin microemulsion, Day 1, PC",<1 Log CFU/mL
same,Survivors of Salmonella Newport on food contact surface,"Salmonella Newport; 0.5% with 0.0001% saponin microemulsion, Day 1, PVC",4.24 Log CFU/mL
same,Survivors of Salmonella Newport on food contact surface,"Salmonella Newport; 0.5% with 0.0001% saponin microemulsion, Day 3, 304 SS",<1 Log CFU/mL
same,Survivors of Salmonella Newport on food contact surface,"Salmonella Newport; 0.5% with 0.0001% saponin microemulsion, Day 3, 316 SS",<1 Log CFU/mL
same,Survivors of Salmonella Newport on food contact surface,"Salmonella Newport; 0.5% with 0.0001% saponin microemulsion, Day 3, Buna N",<1 Log CFU/mL
same,Survivors of Salmonella Newport on food contact surface,"Salmonella Newport; 0.5% with 0.0001% saponin microemulsion, Day 3, HDPE",<1 Log CFU/mL
same,Survivors of Salmonella Newport on food contact surface,"Salmonella Newport; 0.5% with 0.0001% saponin microemulsion, Day 3, PC",<1 Log CFU/mL
same,Survivors of Salmonella Newport on food contact surface,"Salmonella Newport; 0.5% with 0.0001% saponin microemulsion, Day 3, PVC",<1 Log CFU/mL
same,Survivors of Salmonella Newport on food contact surface,"Salmonella Newport; 0.7% with 0.0001% saponin microemulsion, Day 0, 304 SS",4.57 Log CFU/mL
same,Survivors of Salmonella Newport on food contact surface,"Salmonella Newport; 0.7% with 0.0001% saponin microemulsion, Day 0, 316 SS",4.24 Log CFU/mL
same,Survivors of Salmonella Newport on food contact surface,"Salmonella Newport; 0.7% with 0.0001% saponin microemulsion, Day 0, Buna N",4.44 Log CFU/mL
same,Survivors of Salmonella Newport on food contact surface,"Salmonella Newport; 0.7% with 0.0001% saponin microemulsion, Day 0, HDPE",4.24 Log CFU/mL
same,Survivors of Salmonella Newport on food contact surface,"Salmonella Newport; 0.7% with 0.0001% saponin microemulsion, Day 0, PC",4.18 Log CFU/mL
same,Survivors of Salmonella Newport on food contact surface,"Salmonella Newport; 0.7% with 0.0001% saponin microemulsion, Day 0, PVC",4.63 Log CFU/mL
same,Survivors of Salmonella Newport on food contact surface,"Salmonella Newport; 0.7% with 0.0001% saponin microemulsion, Day 1, 304 SS",<1 Log CFU/mL
same,Survivors of Salmonella Newport on food contact surface,"Salmonella Newport; 0.7% with 0.0001% saponin microemulsion, Day 1, 316 SS",<1 Log CFU/mL
same,Survivors of Salmonella Newport on food contact surface,"Salmonella Newport; 0.7% with 0.0001% saponin microemulsion, Day 1, Buna N",<1 Log CFU/mL
same,Survivors of Salmonella Newport on food contact surface,"Salmonella Newport; 0.7% with 0.0001% saponin microemulsion, Day 1, HDPE",<1 Log CFU/mL
same,Survivors of Salmonella Newport on food contact surface,"Salmonella Newport; 0.7% with 0.0001% saponin microemulsion, Day 1, PC",<1 Log CFU/mL
same,Survivors of Salmonella Newport on food contact surface,"Salmonella Newport; 0.7% with 0.0001% saponin microemulsion, Day 1, PVC",<1 Log CFU/mL
same,Survivors of Salmonella Newport on food contact surface,"Salmonella Newport; 0.7% with 0.0001% saponin microemulsion, Day 3, 304 SS",<1 Log CFU/mL
same,Survivors of Salmonella Newport on food contact surface,"Salmonella Newport; 0.7% with 0.0001% saponin microemulsion, Day 3, 316 SS",<1 Log CFU/mL
same,Survivors of Salmonella Newport on food contact surface,"Salmonella Newport; 0.7% with 0.0001% saponin microemulsion, Day 3, Buna N",<1 Log CFU/mL
same,Survivors of Salmonella Newport on food contact surface,"Salmonella Newport; 0.7% with 0.0001% saponin microemulsion, Day 3, HDPE",<1 Log CFU/mL
same,Survivors of Salmonella Newport on food contact surface,"Salmonella Newport; 0.7% with 0.0001% saponin microemulsion, Day 3, PC",<1 Log CFU/mL
same,Survivors of Salmonella Newport on food contact surface,"Salmonella Newport; 0.7% with 0.0001% saponin microemulsion, Day 3, PVC",<1 Log CFU/mL
same,Survivors of Salmonella Newport on food contact surface,"Salmonella Newport; 1% with 0.0001% saponin microemulsion, Day 0, 304 SS",<1 Log CFU/mL
same,Survivors of Salmonella Newport on food contact surface,"Salmonella Newport; 1% with 0.0001% saponin microemulsion, Day 0, 316 SS",<1 Log CFU/mL
same,Survivors of Salmonella Newport on food contact surface,"Salmonella Newport; 1% with 0.0001% saponin microemulsion, Day 0, Buna N",<1 Log CFU/mL
same,Survivors of Salmonella Newport on food contact surface,"Salmonella Newport; 1% with 0.0001% saponin microemulsion, Day 0, HDPE",<1 Log CFU/mL
same,Survivors of Salmonella Newport on food contact surface,"Salmonella Newport; 1% with 0.0001% saponin microemulsion, Day 0, PC",<1 Log CFU/mL
same,Survivors of Salmonella Newport on food contact surface,"Salmonella Newport; 1% with 0.0001% saponin microemulsion, Day 0, PVC",<1 Log CFU/mL
same,Survivors of Salmonella Newport on food contact surface,"Salmonella Newport; 1% with 0.0001% saponin microemulsion, Day 1, 304 SS",<1 Log CFU/mL
same,Survivors of Salmonella Newport on food contact surface,"Salmonella Newport; 1% with 0.0001% saponin microemulsion, Day 1, 316 SS",<1 Log CFU/mL
same,Survivors of Salmonella Newport on food contact surface,"Salmonella Newport; 1% with 0.0001% saponin microemulsion, Day 1, Buna N",<1 Log CFU/mL
same,Survivors of Salmonella Newport on food contact surface,"Salmonella Newport; 1% with 0.0001% saponin microemulsion, Day 1, HDPE",<1 Log CFU/mL
same,Survivors of Salmonella Newport on food contact surface,"Salmonella Newport; 1% with 0.0001% saponin microemulsion, Day 1, PC",<1 Log CFU/mL
same,Survivors of Salmonella Newport on food contact surface,"Salmonella Newport; 1% with 0.0001% saponin microemulsion, Day 1, PVC",<1 Log CFU/mL
same,Survivors of Salmonella Newport on food contact surface,"Salmonella Newport; 1% with 0.0001% saponin microemulsion, Day 3, 304 SS",<1 Log CFU/mL
same,Survivors of Salmonella Newport on food contact surface,"Salmonella Newport; 1% with 0.0001% saponin microemulsion, Day 3, 316 SS",<1 Log CFU/mL
same,Survivors of Salmonella Newport on food contact surface,"Salmonella Newport; 1% with 0.0001% saponin microemulsion, Day 3, Buna N",<1 Log CFU/mL
same,Survivors of Salmonella Newport on food contact surface,"Salmonella Newport; 1% with 0.0001% saponin microemulsion, Day 3, HDPE",<1 Log CFU/mL
same,Survivors of Salmonella Newport on food contact surface,"Salmonella Newport; 1% with 0.0001% saponin microemulsion, Day 3, PC",<1 Log CFU/mL
same,Survivors of Salmonella Newport on food contact surface,"Salmonella Newport; 1% with 0.0001% saponin microemulsion, Day 3, PVC",<1 Log CFU/mL
same,reduction of S. Newport on iceberg lettuce,S. Newport; 0.1%,1 log CFU/g
same,reduction of S. Newport on iceberg lettuce,S. Newport; 0.3%,over 5 log CFU/g
same,reduction of S. Newport on iceberg lettuce,S. Newport; 0.5%,over 5 log CFU/g
